Patent publication US4746667A, “Pharmaceutical composition containing 2-(2-benzimidazolyl thiomethyl) pyridine” (priority 1981, dated 1988)

tested on: gastric acid secretion; assay: Gastric Acid Secretion Inhibiting Effect on Conscious Dogs; format: in vivo; conditions: Canis lupus familiaris; dose 2 μmol/kg, oral (stomach tube), free base suspended in 0.5% Methocel; histamine-stimulated conscious Heidenhain pouch dogs; gastric juice collected 3 hours
Method: Gastric Acid Secretion Inhibiting Effect on Conscious Dogs
Chronic gastric fistula dogs (Heidenhain pouch dogs) were used. These dogs have been surgically provided with a gastric cannula in the pouch. Following a 4 weeks' recovery period after surgery, tests were performed once a week on each dog. Food and water were withdrawn 18 hours before each test.
Gastric acid secretion was induced by continuous infusion of histamine at individual doses (100-300 μmol/kg, h), resulting in submaximal secretion of gastric acid. At least 2 hours after onset of stimulation, when the gastric acid secertion had reached a steady level, the test compounds in the form of free base suspended in 0.5% Methocel® (90 HG, 15.000, Dow Chem. corp.), were given orally by stomach tube. The gastric juice was collected by free flow from the gastric cannula in consecutive 30 minutes samples for 3 hours. The samples were titrated to pH 7.0 with 0.1M NaOH using a Radio-meter automatic titrator and the acid output was calculated.
The percent inhibition of acid secretion was calculated by comparing in each dog the acid output in the tests to the acid output in control tests when only the vehicle was given.

Compound	inhibition in vivo at 2 µmol/kg [%]
COc1c(C)cnc(CSc2nc3cc(C)ccc3[nH]2)c1C [5-CH3, H, H, CH3, OCH3, CH3]	60
COc1c(C)cnc(CSc2nc3cc(C(C)=O)c(C)cc3[nH]2)c1C [5-COCH3,6-CH3, H, CH3, OCH3, CH3, 2-[2-(3,5-dimethyl-4-methoxy)pyridylmethylthio]-5-COCH3-6-CH3-benzimidazole]	35
COC(=O)c1cc2nc(SCc3ncc(C)c(OC)c3C)[nH]c2cc1C [5-COOCH3,6-CH3, H, CH3, OCH3, CH3, 2-[2-(3,5-dimethyl-4-methoxy)pyridylmethylthio]-(5-carbomethoxy-6-methyl)benzimidazole]	80
COc1ccc2[nH]c(SCc3ncc(C)c(C)c3C)nc2c1 [5-OCH3, H, H, CH3, CH3, CH3]	75
COc1ccc2[nH]c(SCc3ncc(C)c(OC)c3C)nc2c1 [5-OCH3, H, H, CH3, OCH3, CH3, 2-[2-(3,5-dimethyl-4-methoxy)pyridylmethylthio]-(5-methoxy)benzimidazole]	75

same assay, conditions: Canis lupus familiaris; dose 8 μmol/kg, oral (stomach tube), free base suspended in 0.5% Methocel; histamine-stimulated conscious Heidenhain pouch dogs; gastric juice collected 3 hours

Compound	inhibition in vivo at 8 µmol/kg [%]
CC(=O)c1cc2nc(SCc3cc(C)c(C)cn3)[nH]c2cc1C [5-COCH3,6-CH3, H, H, CH3, CH3]	80
COc1c(C)cnc(CSc2nc3cc(C(C)=O)ccc3[nH]2)c1C [5-COCH3, H, H, CH3, OCH3, CH3]	90
COC(=O)c1ccc2[nH]c(SCc3ncc(C)c(OC)c3C)nc2c1 [5-COOCH3, H, H, CH3, OCH3, CH3]	50
